Activity calls are given as the source filed them. No cut-off for these calls is given here.
Legend:
U-87 MG [1] = assay: Cytotoxicity against human U-87MG cells assessed as reduction in total cell count measured after 96 hrs by Hoechst staining analysis; format: functional, cell-based, U-87MG ATCC
U-87 MG [2] = assay: Cytotoxicity against human U-87MG cells assessed as reduction in total cell count measured after 96 hrs in presence of TMZ by Hoechst staining analysis; format: functional, cell-based, U-87MG ATCC
U-87 MG [3] = assay: Antiproliferative activity against human U-87MG cells assessed as reduction in cell proliferation measured after 48 hrs by EdU-incorporation assay; format: functional, cell-based, U-87MG ATCC
U-87 MG [4] = assay: Antiproliferative activity against human U-87MG cells assessed as reduction in cell proliferation measured after 48 hrs in presence of TMZ by EdU-incorporation assay; format: functional, cell-based, U-87MG ATCC
GBM [5] = assay: Cytotoxicity against patient derived human GBM cells assessed as reduction in total cell count measured after 96 hrs by Hoechst staining analysis; format: functional, cell-based
GBM [6] = assay: Cytotoxicity against patient derived human GBM cells assessed as reduction in total cell count measured after 96 hrs in presence of TMZ by Hoechst staining analysis; format: functional, cell-based
GBM [7] = assay: Antiproliferative activity against patient derived human GBM cells assessed as reduction in cell proliferation measured after 48 hrs by EdU-incorporation assay; format: functional, cell-based
GBM [8] = assay: Antiproliferative activity against patient derived human GBM cells assessed as reduction in cell proliferation measured after 48 hrs in presence of TMZ by EdU-incorporation assay; format: functional, cell-based
KNS-42 [9] = assay: Cytotoxicity against human KNS-42 cells assessed as reduction in total cell count measured after 96 hrs by Hoechst staining analysis; format: functional, cell-based; details: KNS-42, 96 h
KNS-42 [10] = assay: Cytotoxicity against human KNS-42 cells assessed as reduction in total cell count measured after 96 hrs in presence of TMZ by Hoechst staining based analysis; format: functional; details: KNS-42, 96 h
KNS-42 [11] = assay: Antiproliferative activity against human KNS-42 cells assessed as reduction in cell proliferation measured after 48 hrs by EdU-incorporation assay; format: functional, cell-based; details: KNS-42, 48 h
KNS-42 [12] = assay: Antiproliferative activity against human KNS-42 cells assessed as reduction in cell proliferation measured after 48 hrs in presence of TMZ by EdU-incorporation assay; format: functional, cell-based; details: KNS-42, 48 h
GBM [13] = assay: Induction of apoptosis in patient derived human GBM cells assessed as increase in cleaved caspase-3 positive cells at IC50; format: functional, cell-based
[14] = Cytotoxicity against primary brain pericytes (unknown origin); format: cell-based
[15] = Selectivity ratio of EC50 for cytotoxicity against primary brain pericytes (unknown origin) to EC50 for cytotoxicity against patient derived human GBM cells
GBM [16] = assay: Synergistic cytotoxicity against patient derived human GBM cells assessed as combination index at 0.04 nM measured after 96 hrs in presence of TMZ by Hoechst staining based analysis; format: functional
GBM [17] = assay: Synergistic cytotoxicity against patient derived human GBM cells assessed as combination index at 0.2 nM measured after 96 hrs in presence of TMZ by Hoechst staining based analysis; format: functional
GBM [18] = assay: Synergistic cytotoxicity against patient derived human GBM cells assessed as combination index at 1 nM measured after 96 hrs in presence of TMZ by Hoechst staining based analysis; format: functional
GBM [19] = assay: Synergistic cytotoxicity against patient derived human GBM cells assessed as combination index at 5 nM measured after 96 hrs in presence of TMZ by Hoechst staining based analysis; format: functional
GBM [20] = assay: Synergistic cytotoxicity against patient derived human GBM cells assessed as combination index at 25 nM measured after 96 hrs in presence of TMZ by Hoechst staining based analysis; format: functional
GBM [21] = assay: Synergistic cytotoxicity against patient derived human GBM cells assessed as combination index at 125 nM measured after 96 hrs in presence of TMZ by Hoechst staining based analysis; format: functional
GBM [22] = assay: Synergistic cytotoxicity against patient derived human GBM cells assessed as combination index at 800 nM measured after 96 hrs in presence of TMZ by Hoechst staining based analysis; format: functional
GBM [23] = assay: Synergistic cytotoxicity against patient derived human GBM cells assessed as combination index at 4000 nM measured after 96 hrs in presence of TMZ by Hoechst staining based analysis; format: functional
GBM [24] = assay: Synergistic cytotoxicity against patient derived human GBM cells assessed as combination index at 20000 nM measured after 96 hrs in presence of TMZ by Hoechst staining based analysis; format: functional
GBM [25] = assay: Synergistic cytotoxicity against patient derived human GBM cells assessed as combination index at 100000 nM measured after 96 hrs in presence of TMZ by Hoechst staining based analysis; format: functional
U-87 MG [26] = assay: Antagonistic cytotoxicity against human U-87MG cells assessed as combination index at 0.04 nM measured after 96 hrs in presence of TMZ by Hoechst staining based analysis; format: functional, U-87MG ATCC
U-87 MG [27] = assay: Synergistic cytotoxicity against human U-87MG cells assessed as combination index at 0.2 nM measured after 96 hrs by Hoechst staining based analysis; format: functional, U-87MG ATCC
U-87 MG [28] = assay: Antagonistic cytotoxicity against human U-87MG cells assessed as combination index at 1 nM measured after 96 hrs in presence of TMZ by Hoechst staining based analysis; format: functional, U-87MG ATCC
U-87 MG [29] = assay: Synergistic cytotoxicity against human U-87MG cells assessed as combination index at 5 nM measured after 96 hrs by Hoechst staining based analysis; format: functional, U-87MG ATCC
U-87 MG [30] = assay: Antagonistic cytotoxicity against human U-87MG cells assessed as combination index at 25 nM measured after 96 hrs in presence of TMZ by Hoechst staining based analysis; format: functional, U-87MG ATCC
U-87 MG [31] = assay: Synergistic cytotoxicity against human U-87MG cells assessed as combination index at 125 nM measured after 96 hrs by Hoechst staining based analysis; format: functional, U-87MG ATCC
U-87 MG [32] = assay: Synergistic cytotoxicity against human U-87MG cells assessed as combination index at 800 nM measured after 96 hrs by Hoechst staining based analysis; format: functional, U-87MG ATCC
U-87 MG [33] = assay: Synergistic cytotoxicity against human U-87MG cells assessed as combination index at 4000 nM measured after 96 hrs by Hoechst staining based analysis; format: functional, U-87MG ATCC
U-87 MG [34] = assay: Synergistic cytotoxicity against human U-87MG cells assessed as combination index at 20000 nM measured after 96 hrs by Hoechst staining based analysis; format: functional, U-87MG ATCC
U-87 MG [35] = assay: Synergistic cytotoxicity against human U-87MG cells assessed as combination index at 100000 nM measured after 96 hrs by Hoechst staining based analysis; format: functional, U-87MG ATCC
KNS-42 [36] = assay: Antagonistic cytotoxicity against human KNS-42 cells assessed as combination index at 0.04 nM measured after 96 hrs in presence of TMZ by Hoechst staining based analysis; format: functional
KNS-42 [37] = assay: Synergistic cytotoxicity against human KNS-42 cells assessed as combination index at 0.2 nM measured after 96 hrs by Hoechst staining based analysis; format: functional
KNS-42 [38] = assay: Antagonistic cytotoxicity against human KNS-42 cells assessed as combination index at 1 nM measured after 96 hrs in presence of TMZ by Hoechst staining based analysis; format: functional
KNS-42 [39] = assay: Synergistic cytotoxicity against human KNS-42 cells assessed as combination index at 5 nM measured after 96 hrs by Hoechst staining based analysis; format: functional
KNS-42 [40] = assay: Antagonistic cytotoxicity against human KNS-42 cells assessed as combination index at 25 nM measured after 96 hrs in presence of TMZ by Hoechst staining based analysis; format: functional
KNS-42 [41] = assay: Synergistic cytotoxicity against human KNS-42 cells assessed as combination index at 125 nM measured after 96 hrs by Hoechst staining based analysis; format: functional
KNS-42 [42] = assay: Synergistic cytotoxicity against human KNS-42 cells assessed as combination index at 800 nM measured after 96 hrs by Hoechst staining based analysis; format: functional
KNS-42 [43] = assay: Synergistic cytotoxicity against human KNS-42 cells assessed as combination index at 4000 nM measured after 96 hrs by Hoechst staining based analysis; format: functional
KNS-42 [44] = assay: Synergistic cytotoxicity against human KNS-42 cells assessed as combination index at 20000 nM measured after 96 hrs by Hoechst staining based analysis; format: functional
KNS-42 [45] = assay: Synergistic cytotoxicity against human KNS-42 cells assessed as combination index at 100000 nM measured after 96 hrs by Hoechst staining based analysis; format: functional

Work on `COc1cc(C(=O)NC2CCCN(C(=O)CCCCCN3/C(=C/C=C4\CCCC(/C=C/C5=[N+](CCCCCC(=O)N6CCCC(NC(=O)c7cc(OC)c(OC)c(OC)c7)C6)c6ccccc6C5(C)C)=C4Cl)C(C)(C)c4ccccc43)C2)cc(OC)c1OC.[Br-]` (stereo not given) yielded an EC50 (U-87 MG [1]) of 394 nM, an EC50 (U-87 MG [2]) of 108 nM and an IC50 (U-87 MG [3]) of 504 nM. For the same molecule, the IC50 (U-87 MG [4]) was 194 nM, the EC50 (GBM [5]) was 211 nM and the EC50 (GBM [6]) was 90 nM. For the same molecule, the IC50 (GBM [7]) was 164 nM, the IC50 (GBM [8]) was 110 nM and the EC50 (KNS-42 [9]) was 394 nM. It also gave an EC50 (KNS-42 [10]) of 108 nM, an IC50 (KNS-42 [11]) of 504 nM and an IC50 (KNS-42 [12]) of 194 nM. The Activity (GBM [13]) was “Active”, the EC50 [14] was 3600 nM and the “Ratio EC50” value [15] was 19. For the same molecule, the CI (GBM [16]) was 0.323, the CI (GBM [17]) was 0.025 and the CI (GBM [18]) was 0.301. It also gave a CI (GBM [19]) of 0.551, a CI (GBM [20]) of 0.506 and a CI (GBM [21]) of 0.571. It also gave a CI (GBM [22]) of 0.287, a CI (GBM [23]) of 0.536 and a CI (GBM [24]) of 0.526. The CI (GBM [25]) was 0.248, the CI (U-87 MG [26]) was 5.672 and the CI (U-87 MG [27]) was 0.016. It also gave a CI (U-87 MG [28]) of 3.406, a CI (U-87 MG [29]) of 0.134 and a CI (U-87 MG [30]) of 3.837. It also gave a CI (U-87 MG [31]) of 0.268, a CI (U-87 MG [32]) of 0.067 and a CI (U-87 MG [33]) of 0.116. It also gave a CI (U-87 MG [34]) of 0.052, a CI (U-87 MG [35]) of 0.05 and a CI (KNS-42 [36]) of 5.672. For the same molecule, the CI (KNS-42 [37]) was 0.016, the CI (KNS-42 [38]) was 3.406 and the CI (KNS-42 [39]) was 0.134. For the same molecule, the CI (KNS-42 [40]) was 3.837, the CI (KNS-42 [41]) was 0.268 and the CI (KNS-42 [42]) was 0.067. For the same molecule, the CI (KNS-42 [43]) was 0.116, the CI (KNS-42 [44]) was 0.052 and the CI (KNS-42 [45]) was 0.05.
